The numbers were not newly measured in patent publication US20060078955A1, “Method for retrieving delta9-THC from oral fluid” (Lin-Zhi International, priority 2004, published 2006), which cites them from elsewhere.

For orientation: aqueous solubility means the concentration that dissolves in the medium under given conditions. For the molecule `CCCCCc1cc(O)c2c(c1)OC(C)(C)[C@@H]1CCC(C)=C[C@@H]21` [Δ^9-THC, Δ^9-tetrahydrocannabinol], the aqueous solubility (Jarho et al.) is 1 to 2 µg/mL.

As for “sulfobutyl-ether-β-cyclodextrin [Captisol]”, the intrinsic aqueous solubility (hepta-substituted preparation) is on record as above 50 % w/v.
